The record followed here is ChEMBL document CHEMBL1641536, “The identification, and optimisation of hERG selectivity, of a mixed NET/SERT re-uptake inhibitor for the treatment of pain” (Bioorg Med Chem Lett, 2011).

Data set [1] is described as follows: Volume of distribution at steady state in Wistar rat at 1 mg/kg, iv. The following applies: in vivo, read-out: Vdss. More on the design: dose 1 mg/kg, route intravenous. Format: ADME, organism-based.
For data set [2], the system named is Rattus norvegicus. Briefly: AUC in Wistar rat at 1 mg/kg, iv. It is filed as ADME, organism-based, Plasma. Set-up: dose 1 mg/kg, route intravenous. The note with it: in vivo.
Data set [3] in a line: Oral bioavailability in Wistar rat at 10 mg/kg. Format: ADME, organism-based. The note with it: in vivo.
The nature of data set [4]: Tmax in Wistar rat at 10 mg/kg, po. Set-up: dose 10 mg/kg, route oral. The note with it: in vivo. Format: ADME, organism-based.
Data set [5] in a line: Half life in Wistar rat at 10 mg/kg, po. More on the design: dose 10 mg/kg, route oral. The note with it: in vivo. It is filed as ADME, organism-based.

Molecules are shown by their SMILES.

By AUC is commonly meant the area under the concentration-time curve, a measure of exposure. One may read the bioavailability as dose-corrected exposure relative to a reference, in per cent. In general, Tmax refers to the time at which the peak concentration occurs. A word on the half-life: it is how long it takes for the measured level to halve. Higher therefore signals slow decline.

As for `N#Cc1cc(O[C@@H]2C[C@H]3CC[C@@H](C2)N3)cc(-c2ncccc2C#N)c1`, in data set [1], the Vd amounted to 6.9 L/kg. In data set [2], this compound showed an AUC of 563 ng·h/mL. This compound had a bioavailability in data set [3] of 34%. The Tmax in data set [4] was 1.7 h. In data set [5], this compound gave a half-life of 3.2 h.
